Assay results as given in patent US11339130B1 (Blade Therapeutics, Inc., priority 2016, dated 2022).

What was measured:
Type in all cases: biochemical
[1] = target: T1, Human Calpain 1/NS1 (Homo sapiens, UniProt P07384); assay: Calpain inhibition continuous fluorescence (FRET) assay, Human Calpain 1/NS1; settings: Column A; read-out: Human Calpain 1/NS1 IC50
T1 sequence (P07384 1-714): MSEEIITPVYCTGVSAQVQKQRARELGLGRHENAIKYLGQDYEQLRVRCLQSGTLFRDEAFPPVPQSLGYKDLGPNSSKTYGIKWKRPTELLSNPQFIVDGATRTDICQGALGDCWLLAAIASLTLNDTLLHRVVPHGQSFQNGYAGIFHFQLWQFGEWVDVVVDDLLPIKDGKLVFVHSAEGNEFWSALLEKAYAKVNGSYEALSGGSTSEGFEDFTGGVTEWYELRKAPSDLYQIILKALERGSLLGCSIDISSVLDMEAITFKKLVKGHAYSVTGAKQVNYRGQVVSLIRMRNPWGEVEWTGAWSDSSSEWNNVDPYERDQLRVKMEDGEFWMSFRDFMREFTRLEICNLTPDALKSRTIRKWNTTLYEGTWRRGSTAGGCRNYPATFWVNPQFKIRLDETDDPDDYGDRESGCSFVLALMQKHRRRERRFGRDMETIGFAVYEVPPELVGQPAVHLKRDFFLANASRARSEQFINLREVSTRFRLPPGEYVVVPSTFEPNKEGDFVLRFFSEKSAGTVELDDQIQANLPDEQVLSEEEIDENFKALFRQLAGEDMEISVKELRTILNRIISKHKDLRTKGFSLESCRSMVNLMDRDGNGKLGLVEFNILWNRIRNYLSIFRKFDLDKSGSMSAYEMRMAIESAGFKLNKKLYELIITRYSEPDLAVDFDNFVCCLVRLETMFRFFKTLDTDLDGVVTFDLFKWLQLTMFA
T1 sequence (P04632 1-268 partner): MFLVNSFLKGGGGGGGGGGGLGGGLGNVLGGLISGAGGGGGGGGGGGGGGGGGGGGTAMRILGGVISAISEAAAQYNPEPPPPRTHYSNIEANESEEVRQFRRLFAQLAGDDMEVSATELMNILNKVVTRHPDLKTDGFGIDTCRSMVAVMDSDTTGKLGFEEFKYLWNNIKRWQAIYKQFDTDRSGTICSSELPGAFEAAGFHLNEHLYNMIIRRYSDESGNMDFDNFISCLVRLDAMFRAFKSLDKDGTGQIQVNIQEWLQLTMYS
Summary of the method: (§1)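 Fluorescence increase from the cleaved 5-FAM/QXL 520 substrate, read at 490/520 nm, gave activity. Calcium was supplied with the substrate to activate the enzyme in situ after a 25C enzyme-inhibitor preincubation, and IC50s were fit from initial slopes.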

[2] = target: T2, Human Calpain 2/NS1 (Homo sapiens, UniProt P17655); assay: Calpain inhibition continuous fluorescence (FRET) assay, Human Calpain 2/NS1; settings: Column B; read-out: Human Calpain 2/NS1 IC50
T2 sequence (P17655 1-700): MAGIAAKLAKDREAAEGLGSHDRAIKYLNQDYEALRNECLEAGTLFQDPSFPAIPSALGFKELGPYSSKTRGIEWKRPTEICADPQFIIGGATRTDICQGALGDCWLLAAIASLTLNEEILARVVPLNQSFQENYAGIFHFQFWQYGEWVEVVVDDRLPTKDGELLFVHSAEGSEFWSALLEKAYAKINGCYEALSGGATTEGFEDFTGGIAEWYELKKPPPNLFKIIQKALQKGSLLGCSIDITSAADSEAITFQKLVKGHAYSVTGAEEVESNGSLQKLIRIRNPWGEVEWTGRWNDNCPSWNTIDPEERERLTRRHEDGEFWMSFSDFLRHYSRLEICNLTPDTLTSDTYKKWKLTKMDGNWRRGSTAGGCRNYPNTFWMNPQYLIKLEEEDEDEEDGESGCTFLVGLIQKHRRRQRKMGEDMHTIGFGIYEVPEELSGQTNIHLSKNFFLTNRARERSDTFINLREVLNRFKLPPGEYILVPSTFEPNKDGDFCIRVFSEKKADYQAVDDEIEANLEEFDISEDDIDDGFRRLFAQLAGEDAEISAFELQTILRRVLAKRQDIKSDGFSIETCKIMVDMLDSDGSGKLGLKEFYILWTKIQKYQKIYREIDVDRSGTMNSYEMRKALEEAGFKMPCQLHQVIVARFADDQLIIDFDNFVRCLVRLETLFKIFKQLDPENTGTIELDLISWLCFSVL
T2 sequence (P04632 1-268 partner): T1 sequence (P04632 1-268 partner)
Summary of the method: as §1

[3] = target: T3, Human Calpain 9/NS1 (Homo sapiens, UniProt O14815); assay: Calpain inhibition continuous fluorescence (FRET) assay, Human Calpain 9/NS1; settings: Column C; read-out: Human Calpain 9/NS1 IC50
T3 sequence (O14815 1-690): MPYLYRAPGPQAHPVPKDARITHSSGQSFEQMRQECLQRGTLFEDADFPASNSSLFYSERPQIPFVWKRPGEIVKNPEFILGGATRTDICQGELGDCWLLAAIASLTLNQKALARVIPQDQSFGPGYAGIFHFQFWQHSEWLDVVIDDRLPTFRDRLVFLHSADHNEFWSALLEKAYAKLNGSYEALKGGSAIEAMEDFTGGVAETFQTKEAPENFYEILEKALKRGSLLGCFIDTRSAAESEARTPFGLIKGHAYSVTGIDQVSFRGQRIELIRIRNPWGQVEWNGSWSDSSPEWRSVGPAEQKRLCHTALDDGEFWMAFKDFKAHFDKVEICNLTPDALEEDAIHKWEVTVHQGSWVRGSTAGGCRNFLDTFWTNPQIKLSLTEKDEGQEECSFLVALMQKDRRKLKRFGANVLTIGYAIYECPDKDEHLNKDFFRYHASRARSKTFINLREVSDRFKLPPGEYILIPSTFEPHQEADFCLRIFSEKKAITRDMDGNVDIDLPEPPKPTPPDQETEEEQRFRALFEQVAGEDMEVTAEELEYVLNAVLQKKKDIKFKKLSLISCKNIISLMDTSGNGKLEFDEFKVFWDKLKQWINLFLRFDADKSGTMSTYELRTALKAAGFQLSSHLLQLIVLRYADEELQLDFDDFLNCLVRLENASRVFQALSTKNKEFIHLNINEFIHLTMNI
T3 sequence (P04632 1-268 partner): T1 sequence (P04632 1-268 partner)
Summary of the method: as §1

Structure (SMILES)	IC50 [1]	IC50 [2]	IC50 [3]
Cn1ncc(C(=O)N[C@@H](Cc2ccccc2)C(=O)C(N)=O)c1-c1cccc(C(F)(F)F)n1 [Compound 194, (S)—N-(4-amino-3,4-dioxo-1-phenylbutan-2-yl)-1-methyl-5-(6-(trifluoromethyl)pyridin-2-yl)-1H-pyrazole-4-carboxamide]	< 3 µM	< 3 µM	< 3 µM
C=CC[C@H](NC(=O)c1cn(C)nc1-c1ccccc1)C(=O)C(N)=O [Compound 195, N-(1-amino-1,2-dioxohex-5-en-3-yl)-1-methyl-3-phenyl-1H-pyrazole-4-carboxamide]	< 3 µM	3 to 10 µM	< 3 µM
Cn1cc(C(=O)N[C@@H](Cc2ccccc2)C(=O)C(N)=O)c(Br)n1 [Compound 196, (S)—N-(4-amino-3,4-dioxo-1-phenylbutan-2-yl)-3-bromo-1-methyl-1H-pyrazole-4-carboxamide]	< 3 µM	< 3 µM	3 to 10 µM
O=C(NC1CC1)C(=O)[C@H](Cc1ccccc1)NC(=O)c1cncn1-c1ccc(-c2ccccc2)nn1 [Compound 201, (S)—N-(4-(cyclopropylamino)-3,4-dioxo-1-phenylbutan-2-yl)-1-(6-phenylpyridazin-3-yl)-1H-imidazole-5-carboxamide]	< 3 µM	< 3 µM	3 to 10 µM
O=C(NC1CC1)C(=O)[C@H](Cc1ccccc1)NC(=O)c1nn[nH]c1-c1ccccc1 [Compound 204, (S)—N-(4-(cyclopropylamino)-3,4-dioxo-1-phenylbutan-2-yl)-5-phenyl-1H-1,2,3-triazole-4-carboxamide]	> 10 µM	> 10 µM	> 10 µM
Cc1noc(-c2ccccc2)c1C(=O)N[C@@H](CCc1ccccc1)C(=O)C(N)=O [Compound 205, (S)—N-(1-amino-1,2-dioxo-5-phenylpentan-3-yl)-3-methyl-5-phenylisoxazole-4-carboxamide]	< 3 µM	< 3 µM	< 3 µM
Cc1cc(C(F)(F)F)cc(-n2nc(C)cc2C(=O)N[C@@H](Cc2ccccc2)C(=O)C(=O)NC2CC2)n1 [Compound 206, (S)—N-(4-(cyclopropylamino)-3,4-dioxo-1-phenylbutan-2-yl)-3-methyl-1-(6-methyl-4-(trifluoromethyl)pyridin-2-yl)-1H-pyrazole-5-carboxamide]	< 3 µM	> 10 µM	> 10 µM
Cc1cc(C(=O)N[C@@H](Cc2ccccc2)C(=O)C(N)=O)n(-c2ccncc2)n1 [Compound 209, (S)—N-(4-amino-3,4-dioxo-1-phenylbutan-2-yl)-3-methyl-1-(pyridin-4-yl)-1H-pyrazole-5-carboxamide]	< 3 µM	< 3 µM	< 3 µM
Cc1noc(-n2ccc(-c3ccccc3)n2)c1C(=O)N[C@@H](Cc1ccccc1)C(=O)C(N)=O [Compound 211, (S)—N-(4-amino-3,4-dioxo-1-phenylbutan-2-yl)-3-methyl-5-(3-phenyl-1H-pyrazol-1-yl)isoxazole-4-carboxamide]	< 3 µM	< 3 µM	< 3 µM
NC(=O)C(=O)[C@H](Cc1ccccc1)NC(=O)c1c(Cl)nsc1-c1ccccc1 [Compound 213, (S)—N-(4-amino-3,4-dioxo-1-phenylbutan-2-yl)-3-chloro-5-phenylisothiazole-4-carboxamide]	< 3 µM	< 3 µM	< 3 µM
Cc1cc(C(=O)N[C@@H](Cc2ccccc2)C(=O)C(N)=O)n(-c2nccs2)n1 [Compound 215, (S)—N-(4-amino-3,4-dioxo-1-phenylbutan-2-yl)-3-methyl-1-(thiazol-2-yl)-1H-pyrazole-5-carboxamide]	< 3 µM	< 3 µM	< 3 µM
Cc1cc(C(=O)N[C@@H](Cc2ccccc2)C(=O)C(N)=O)nn1-c1nccs1 [Compound 219, (S)—N-(4-amino-3,4-dioxo-1-phenylbutan-2-yl)-5-methyl-1-(thiazol-2-yl)-1H-pyrazole-3-carboxamide]	3 to 10 µM	3 to 10 µM	3 to 10 µM
NC(=O)C(=O)[C@H](Cc1ccccc1)NC(=O)[C@@H]1C[C@@H](OCc2ccccc2)CN1c1ccccc1 [Compound 220, (2S,4R)—N—((S)-4-amino-3,4-dioxo-1-phenylbutan-2-yl)-4-(benzyloxy)-1-phenylpyrrolidine-2-carboxamide]	< 3 µM	< 3 µM	3 to 10 µM
Cc1noc(-c2ccccc2)c1C(=O)N[C@@H](Cc1ccccc1)C(=O)C(=O)NCc1cccnc1 [Compound 224, (S)—N-(3,4-dioxo-1-phenyl-4-((pyridin-3-ylmethyl)amino)butan-2-yl)-3-methyl-5-phenylisoxazole-4-carboxamide]	< 3 µM	3 to 10 µM	3 to 10 µM
Cc1noc(-c2ccccc2)c1C(=O)N[C@@H](Cc1ccccc1)C(=O)C(=O)NCc1ccc2c(c1)OCO2 [Compound 225, (S)—N-(4-((benzo[d][1,3]dioxol-5-ylmethyl)amino)-3,4-dioxo-1-phenylbutan-2-yl)-3-methyl-5-phenylisoxazole-4-carboxamide]	< 3 µM	> 10 µM	> 10 µM
Cc1cc(-n2nc(C(=O)N[C@@H](Cc3ccccc3)C(=O)C(N)=O)cc2C)nc(C)n1 [Compound 232, (S)—N-(4-amino-3,4-dioxo-1-phenylbutan-2-yl)-1-(2,6-dimethylpyrimidin-4-yl)-5-methyl-1H-pyrazole-3-carboxamide]	> 10 µM	> 10 µM	3 to 10 µM
Cc1cc(C(=O)N[C@@H](Cc2ccccc2)C(=O)C(N)=O)n(-c2ccc(-c3ccccc3)nn2)n1 [Compound 233, (S)—N-(4-amino-3,4-dioxo-1-phenylbutan-2-yl)-3-methyl-1-(6-phenylpyridazin-3-yl)-1H-pyrazole-5-carboxamide]	< 3 µM	< 3 µM	3 to 10 µM
